Assay results as given in patent US20230093594A1, “PANTETHENOYLCYSTEINE DERIVATIVES AND USES THEREOF” (Comet Therapeutics, Inc., priority 2019, published 2023).

Key:
[1] = test system: MMA Patient fibroblasts (GM01673); assay: Mitochondrial morphology imaging in MMA patient fibroblasts (GM01673); type: cell-based; conditions: image compared with fragmented mitochondria in vehicle control
[2] = test system: MMA Patient fibroblasts (TSI 3739); assay: Mitochondrial morphology imaging in MMA patient fibroblasts (TSI 3739); type: cell-based; conditions: image compared with fragmented mitochondria in vehicle control
[3] = test system: CD14+ monocytes differentiated to M1 macrophages; assay: M1 differentiation assay (macrophage cytokine secretion, ELISA); type: cell-based, human; conditions: 10 uM
Experimental: Monocytes were isolated by positive isolation with CD14+ microbeads (Miltenyi, 130-050-201). Monocytes were 99% viable and were 96% purity as analyzed by FACS and CD14±(BD, 563561). 100,000 monocytes along with compounds at the dose of 10 and 50 μM were allowed to differentiate to macrophages with 10 ng/ml GMCSF (R&D,15-GM-050/CF) in RPMI complete media (Invitrogen, 22400089) with 15% FBS (Hyclone SV30087.03) and 1% Penicillin-Streptomycin (Gibco, 15140-122). On day 2 and 4 half the media was refreshed with fresh GM-CSF and compounds at 10 and 50 μM dose. On day 6 the macrophages were matured with GMCSF, IFN, (R&D 285-IF-100/CF) and LPS (Sigma, L6143) in the presence of 10 μM and 50 μM of compounds. After 24h, supernatant was collected for the measurement of TNFα (DKW, 1117202), IL6 (DKW, 1110602), IL10 (DKW, 1110003) by ELISA. Macrophages were detached gently on ice with EDTA (Invitrogen, 15575-038) and analyzed by FACS (BD LSR Fortessa, 853492). […]

[4] = test system: MMA Patient fibroblasts (GM00371); assay: Mitochondrial morphology imaging in MMA patient fibroblasts (GM00371); type: cell-based; conditions: image compared with fragmented mitochondria in vehicle control

SMILES	mitochondrial morphology (elongation and networking of mitochondria) [1]	mitochondrial morphology (elongation and networking of mitochondria) [2]	% decrease in Macrophage IL-6 Secretion [3]	% decrease in Macrophage TNFα Secretion [3]	mitochondrial morphology (elongation and networking of mitochondria) [4]
COC(=O)[C@H](CSC(=O)CCCN)NC(=O)CCNC(=O)[C@H](O)C(C)(C)CO [Compound 72, methyl (2R)-3-[(4-aminobutanoyl)sulfanyl]-2-[3-[(2R)-2,4-dihydroxy-3,3-dimethylbutanamido]propanamido]propanoate]	elongation and networking of mitochondria promoted	–	–	–	–
COC(=O)[C@H](CSC(=O)CCCOC(C)=O)NC(=O)CCNC(=O)[C@H](O)C(C)(C)CO [Compound 698, methyl (2R)-3-[[4-(acetyloxy)butanoyl]sulfanyl]-2-[3-[(2R)-2,4-dihydroxy-3,3-dimethylbutanamido]propanamido]propanoate]	elongation and networking of mitochondria promoted	elongation and networking of mitochondria promoted	–	–	–
CC(=O)NCCCC(=O)SC[C@H](NC(=O)CCNC(=O)[C@H](O)C(C)(C)CO)C(=O)O [Compound 215, (2R)-2-[3-[(2R)-2,4-dihydroxy-3,3-dimethylbutanamido]propanamido]-3-[(4-acetamidobutanoyl)sulfanyl]propanoic acid]	–	–	≥30%	≥30%	–
COC(=O)[C@H](CSC(=O)CCCNC(C)=O)NC(=O)CCNC(=O)[C@H](O)C(C)(C)CO [Compound 216, methyl (2R)-2-[3-[(2R)-2,4-dihydroxy-3,3-dimethylbutanamido]propanamido]-3-[(4-acetamidobutanoyl)sulfanyl]propanoate]	elongation and networking of mitochondria promoted	elongation and networking of mitochondria promoted	–	–	–
COC(=O)[C@H](CSC(=O)CCCO)NC(=O)CCNC(=O)[C@H](O)C(C)(C)CO [Compound 697, methyl (2R)-2-[3-[(2R)-2,4-dihydroxy-3,3-dimethylbutanamido]propanamido]-3-[(4-hydroxybutanoyl)sulfanyl]propanoate]	elongation and networking of mitochondria promoted	elongation and networking of mitochondria promoted	–	–	elongation and networking of mitochondria promoted
